Where two headings read alike, the source gives them in different places. Bounds are passed on as bounds.

For series [1], the target named is glycoprotein D (gD) of HSV. Briefly: Isothermal titration calorimetry with glycoprotein D. The note with it: ITC, 25°C. Format: binding. On the procedure:
Isothermal titration calorimetry (ITC) experiments were conducted using ITC200 instruments (GE Healthcare, USA) equipped with a 200 μL sample cell and a 40 μL syringe. Thirteen injections were applied. The first data point was excluded. BSA protein and viral protein concentrations in the cell were approximately 50 μM and 1 mg/mL, respectively, and ligand concentrations in the syringe were roughly 2 mM. They were centrifuged at 2000g for 2 min to remove bubbles. The titration was performed at 25 or 37 °C, with data analyzed using MicroCal PEAQ ITC software. Baseline correction was applied, and Nitpic/Sedphat was used for automated integration to ensure precise binding parameter determination.
A general note: In ITC the heat of successive injections is recorded.

Series [2] relates to HSV-1. Put plainly: HSV-1 inhibition assay (plaque reduction on Vero cells). Format: cell-based, herpes simplex virus type 1. The settings on record: Human alphaherpesvirus 1, dose–response. On the procedure: The inhibitory effect of compounds on HSV-1 was evaluated by plaque reduction assay. Vero cells were plated 24 h before the experiment in 24-well plates at a density of 10^5 cells/well. Serial dilutions of compounds in DMEM medium (2% FBS, 1% P/S) were prepared, followed by the addition of aliquots of HSV-1 such that the final titer of the virus is […] (with MOI = 0.0005). Compounds/virus mixtures were incubated at 37 °C for 1 h and added to the cells (250 μL/well). Followed by incubation at 37 °C for 1 h, the viral inoculum was removed. The cells were overlaid with DMEM medium containing 1.2% methylcellulose, 2% FBS, and 1% P/S. After 3 days of incubation at 37 °C, 5% CO2, the cells were fixed and stained with 0.1% crystal violet in 20% ethanol, and plaques were counted. Each group of experiments in the inhibition assay was performed in triplicate. The concentration producing a 50% reduction in plaque formation was determined using the Prism 10 software (GraphPad Software, USA) by comparing compound-treated and untreated cells. Infectivity was calculated as the number of plaques in compound-treated cells/number of plaques in untreated cells × 100%.

Series [3] is described as follows: CMC assay (conductivity method). Format: physicochemical. The note with it: in water. As for the experimental part: The CMC of antiviral compounds was measured by the conductivity method. Antiviral compounds were diluted into water at different concentrations, and the conductivity (μS/cm) was measured at each concentration with a conductivity meter (Mettler Toledo, Switzerland). The CMC was identified as the point on the conductivity-concentration plot where the slope changed.

For series [4], the system named is HSV-2. Put plainly: Growth of viruses in the presence of compounds (posttreatment), HSV-2. The note with it: for IC50: Human alphaherpesvirus 2, Vero, posttreatment condition, Vero cells. In kind it is cell-based, herpes simplex virus type 2.
The subject of series [5] is HSV-2. Put plainly: HSV-2 inhibition assay (plaque reduction on Vero cells, pretreatment). In kind it is cell-based, herpes simplex virus type 2. The settings on record: Human alphaherpesvirus 2, Vero, pretreatment condition.
For series [6], the system named is H1N1 clinical. Briefly: Influenza inhibition assay (ICC on MDCK cells). Format: cell-based. The note with it: Influenza A virus, dose–response.
Series [7] relates to H1N1N09. Briefly: Influenza inhibition assay (ICC on MDCK cells). Format: cell-based, Influenza A/Netherlands/602/2009 (H1N1). The note with it: Influenza A virus, dose–response.
For series [8], the system named is H3N2. Briefly: Influenza inhibition assay (ICC on MDCK cells, pretreatment). Format: cell-based. The settings on record: Influenza A virus.
The nature of series [9]: Partition coefficient octanol/water (UV-vis). Format: physicochemical. On the procedure:
UV–vis spectroscopy was employed first to determine the correct dilution of all compounds. The seven compounds in this study were B3C11SO4, B3C11SO3, B3C6SO3, B3C6SO4, C4C11SO4, C4C11SO3, and C4C3SO3. The protocol is the same for all the compounds: in the beginning, all compounds were dissolved in water at a concentration of 1 mg/mL. The solution was put into a quartz cuvette and then into the UV–vis spectrometer, where the absorbance from wavelengths 600 to 190 nm was investigated. All of the samples presented a peak in absorbance around 200 nm. The samples were diluted further until the absorbance peak reached values near 0.90.
A biphasic solution composed of 1.5 mL of a water solution of antiviral +1.5 mL of octanol was thoroughly mixed for 60 min. After the mixing, the two phases were separated by centrifugation for 1 min using a benchtop centrifuge at 5000 rpm. The water phase saturated in octanol and the octanol phase saturated with water were extracted and characterized by UV–vis spectrometry.
The partition coefficient (log P) was then calculated using formula : logP=log(Absorbanceofoctanolphase/Absorbanceofwaterphase) 1

In series [10] the test system is NO production in RAW 264.7 cells. Put plainly: NO production in LPS-stimulated macrophages. Format: cell-based. The settings on record: Mus musculus, RAW264.7; RAW 264.7 pretreated 2 h with MEIs, then LPS 1 μg/mL for 24 h. As for the experimental part: To evaluate the anti-inflammatory potential of MEIs, we investigated their ability to reduce the level of NO production in macrophages. RAW 264.7 cells were pretreated with the different concentrations of MEIs for 2 h, followed by stimulation with lipopolysaccharide (LPS) (1 μg/mL) for 24 h to induce inflammation. […] However, cotreatment with MEIs led to a reduction in NO levels, confirming their anti-inflammatory effect.

The test system of series [11] is HSV-2. Briefly: HSV-2 virucidal assay. Format: cell-based, herpes simplex virus type 2. The note with it: for inhibition mechanism against HSV-2 (in words): virucidal tests.
For series [12], the system named is HSV-2. Put plainly: HSV-2 inhibition assay (plaque reduction on Vero cells, pretreatment). The note with it: for IC50: Human alphaherpesvirus 2, Vero, dose–response, Vero cells. Format: cell-based, herpes simplex virus type 2. As for the experimental part: The inhibitory effect of compounds on HSV-2 was evaluated by plaque reduction assay. Vero cells were plated 24 h before the experiment in 24-well plates with a seeding density of 10^5 cells/well. Serial dilutions of compounds in DMEM medium (2% FBS, 1% P/S) were prepared, followed by the addition of aliquots of HSV-2 such that the final titer of the virus was 200 pfu/mL (with MOI = 0.0005). Compounds/virus mixtures were incubated at 37 °C for 1 h and added to the cells (250 μL/well). Followed by incubation at 37 °C for 1 h, the viral inoculum was removed. The cells were overlaid with DMEM medium containing 1.2% methylcellulose, 2% FBS, and 1% P/S. After 48 h of incubation at 37 °C, 5% CO2, the cells were fixed and stained with 0.1% crystal violet in 20% ethanol. Finally, the plaques were counted. Each group of experiments in the inhibition assay was performed in triplicate. The concentration producing a 50% reduction in plaque formation was determined using Prism 10 software (GraphPad Software, USA) by comparing compound-treated and untreated cells. Infectivity was calculated as the number of plaques in compound-treated cells/number of plaques in untreated cells × 100%.

The test system of series [13] is Flu B. Put plainly: Influenza inhibition assay (ICC on MDCK cells). The settings on record: dose–response. In kind it is cell-based.
Where [14] appears, read: dose–response, read-out: IC50 H3N2.
The mark [15] stands for this setting: pretreatment condition, read-out: pretreatment IC50, H3N2.
Setting [16] is: HSV-2 inhibition, concentration intended to inhibit infection by at least 90 and 99%.

With `O=S(=O)(O)OCCCCCCCCCCCSCc1cc(CSCCCCCCCCCCCOS(=O)(=O)O)cc(CSCCCCCCCCCCCOS(=O)(=O)O)c1` [B3C11SO4], in series [1], binding was put at a Kd of 28.2 µM. For the same molecule, the IC50 (commonly the concentration that gives 50% inhibition) in [2] came out at 43 ± 1.14 µM; in series [4] it was 18 ± 1.13 µM; in [5], 43 ± 8.3 µM; in series [6], 0.7 ± 0.04 µM; in series [7] it was 0.9 ± 0.05 µM; in [8] (setting [14]), 0.6 ± 0.12 µM. The IC50 was found to be 0.6 ± 0.12 µM in series [8] (setting [15]), 152.8 ± 1.27 µM in [10], 43 ± 8.3 µM in [12] and 0.4 ± 0.04 µM in series [13]. This molecule also gave a CMC in series [3] of 556 ± 35.1 µM. For the same molecule, in series [9], the lipophilicity (logP) (commonly the decadic logarithm of the partition coefficient of the neutral form, usually between octanol and water) is -2.2. In series [11], the “inhibition mechanism against HSV-2 (in words)” value (shortened to “inhibition mechanism”) is “virucidal”. Besides, in [12] (setting [16]), the IC99 (usually the point of the concentration-response curve where the effect stands at 99%) was 103.8 ± 8.3 µM.
As to `O=S(=O)(O)CCCCCCCCCCCSCc1cc(CSCCCCCCCCCCCS(=O)(=O)O)cc(CSCCCCCCCCCCCS(=O)(=O)O)c1` [B3C11SO3], binding in series [1] was characterised by a dissociation constant (Kd) of 23.2 µM. In addition, the concentration for half-maximal inhibition (IC50) in series [2] stood at 139 ± 4.6 µM; in series [4], 10.3 ± 1.17 µM; in [5], 88.5 ± 7.6 µM; in series [6] it was 4.2 ± 0.36 µM; in series [7], 35.2 ± 4.7 µM; in [8] (setting [14]), 49.5 ± 8.7 µM. Further, the results for the IC50 in series [8] (setting [15]), in [12] and in series [13] were 49.5 ± 8.7 µM, 88.5 ± 7.6 µM and 324 ± 103 µM, respectively. In series [3], the CMC turned out to be 497 ± 20.9 µM. For the same molecule, the “fold reduction in IC50, posttreatment vs pretreatment” value in [4] (HSV-2) was “approximately 9 fold”. Moreover, the log partition coefficient (logP) in series [9] was -2.43. Further, the “Virucidal/Virustatic, HSV-2” value in [11] (concentration 300 uM) and in [11] (concentration 500 uM) was “Virustatic” throughout. The “inhibition mechanism” value in series [11] was “virustatic”. In [11] (virucidal titration at 90–99% viral inhibition concentration, Vero cells), the “Virucidal activity, HSV-2” value was “S”. In addition, in series [12], the 99% effect concentration (IC99) was 1092 ± 7.6 µM.
As to `O=S(=O)(O)OCCCCCCCCCCCSCc1cc2c(cc1CSCCCCCCCCCCCOS(=O)(=O)O)OCCOCCOc1cc(CSCCCCCCCCCCCOS(=O)(=O)O)c(CSCCCCCCCCCCCOS(=O)(=O)O)cc1OCCOCCO2` [C4C11SO4], in [1], the dissociation constant (Kd) (commonly the free concentration of one partner at which half of the binding sites on the other are occupied at equilibrium, for simple one-to-one binding) is 141 µM. Moreover, the 50% inhibitory concentration (IC50) in series [2] was 22.5 ± 4.2 µM; in series [4], 4.8 ± 0.7 µM; in series [5], 18.5 ± 5.2 µM; in series [6], over 202 µM; in [7], 80.9 ± 13.7 µM; in series [8] (setting [14]), 40.9 ± 1.19 µM. Further, the IC50 was found to be 6.4 ± 1.03 µM in [8] (setting [15]), 66.1 ± 1.23 µM in series [10], 9.8 ± 1.5 µM in series [12] and 47.9 ± 9.38 µM in series [13]. Also, the CMC in series [3] stood at 1003 ± 24.6 µM. Moreover, the logP in series [9] was -1.76. Also, the concentration for an effect of 99% (IC99) in series [12] (setting [16]) is 67.47 ± 5.2 µM.
The molecule `O=S(=O)(O)CCCCCCCCCCCSCc1cc2c(cc1CSCCCCCCCCCCCS(=O)(=O)O)OCCOCCOc1cc(CSCCCCCCCCCCCS(=O)(=O)O)c(CSCCCCCCCCCCCS(=O)(=O)O)cc1OCCOCCO2` [C4C11SO3] had a dissociation constant (Kd) in [1] of 83.5 µM. Besides, the half-maximal inhibitory concentration (IC50) turned out to be 118 ± 10.4 µM in series [2]; 12.3 ± 0.76 µM in [4]; 9.8 ± 1.5 µM in series [5]; 10.4 ± 3.34 µM in series [6]; 15.8 ± 3.1 µM in [7]; 6.4 ± 1.03 µM in [8] (setting [14]). Further, the IC50 in series [8] (setting [15]) is 40.9 ± 1.19 µM; in series [10], 173.8 ± 1.52 µM; in [12] it was 18.5 ± 5.2 µM; in [13] it was 7.7 ± 3.75 µM. This molecule showed a CMC in series [3] of 237 ± 17.1 µM. The logP in [9] is -2.25. The “Virucidal/Virustatic, HSV-2” value in [11] (concentration 126.3 uM), in series [11] (concentration 237.16 uM) and in [11] (concentration 304 uM) was “Virucidal” each time. For the same molecule, the “inhibition mechanism” value in series [11] is on record as “virucidal”. The IC99 in series [12] (setting [16]) was found to be 408 ± 1.5 µM.
